Values of other authors in US11027026B2, “Polymer, and contrast agent for photoacoustic imaging, including the polymer” (CANON KABUSHIKI KAISHA, priority 2014, dated 2021).

Conditions: in vivo

In the case of `CC1(C)C(/C=C/C=C/C=C/C=C2/N(CCCCS(=O)(=O)[O-])c3ccc4ccccc4c3C2(C)C)=[N+](CCCCS(=O)(=O)[O-])c2ccc3ccccc3c21.[Na+]` [ICG, indocyanine green], the Half-life in blood is listed as “about several minutes”.
